Laboratory results: US20170050966A1, “INHIBITING THE TRANSIENT RECEPTOR POTENTIAL A1 ION CHANNEL” (HYDRA BIOSCIENCES, INC., priority 2014, published 2017)
Values after ≈ are worked out from the molar mass of the structure shown. Read-outs that look alike come from different tables or passages of the source.

Key:
[1] = Solubility of micronized Compound 2 in McIlvain's citrate-phosphate buffer; format: physicochemical; conditions: aqueous buffer, thermodynamic from solid, citrate-phosphate buffer pH 2.2 to 8.64, 30 hours, read-out: Solubility of micronized formulation
Method: Solubility of a micronized formulation of Compound 2 was further evaluated using McIlvain's citrate-phosphate buffer recipes (0.2M Na2HPO4 and 0.1M citric acid) from pH 2.2 to 8.64. Samples were agitated for 30 hours and sampled, centrifuged, and analyzed by UPLC.

[2] = Plasma protein binding, equilibrium dialysis; conditions: pooled K2EDTA plasma
Method: With this method, free compound is separated from protein-bound compound by dialysis across a semi-permeable membrane.
The protein binding was tested at a concentration of 1 μM. Pooled human, cynomolgus monkey, dog, and rat K2EDTA plasma was thawed and centrifuged at 2000×g for 10 minutes at 4° C. to remove particulates; any lipid on the top of the supernatant was also removed by aspiration. The plasma was warmed to 37° C. for 10 minutes before use. Test compounds were spiked into 2 ml plasma in a polypropylene plate to a final concentration of 1 μM. Triplicate 400 μl aliquots of spiked plasma were transferred into the Thermo RED dialysis units and dialyzed against 600 μl of PBS buffer. […] After 6 hours dialysis, triplicate 50 μl aliquots were removed from the RED plate, matrix-matched with either PBS buffer or blank plasma, as appropriate, and quenched with 4 volumes of ACN containing an internal standard. The extracted samples were then centrifuged at 2000×g for 5 minutes at 4° C. The supernatant (50 μl) was removed and diluted with 100 μl water prior to LC/MS/MS bioanalysis.

[3] = target: T1, human TRPA1 (hTRPA1) (Homo sapiens, UniProt O75762); test: hTRPA1 IC50 in presence of albumin and plasma, whole-cell patch clamp; format: cell-based; conditions: for IC50: 20 μM AITC
T1 construct: expressed in transfected cells
Excerpt: The change in IC50 block in the presence of albumin and plasma was also studied. It is assumed that the pharmacological effect of a drug correlates to unbound plasma levels, which is known as the “free drug hypothesis”. The aim of this study was to estimate the change in IC50 for block of human TRPA1 (hTRPA1) by Compound 2 in the presence of physiologically relevant concentrations of albumin and plasma (see Table 7). The human form of TRPA1 was used to assess protein binding in all species due to technical issues. The whole-cell patch clamp technique as described in del Camino, D. et al. J Neurosci 74 (2010) 30:15165 was employed to measure current through hTRPA1 upon activation by allyl isothiocyanate (AITC), the active ingredient in mustard oil, in the presence of 1% (w/v) serum albumin or 25% (v/v) plasma from various species including human plasma (hPlasma), human serum albumin (HSA), rat plasma (rPlasma), rat serum albumin (RSA), dog plasma, and sheep serum albumin (sheepSA). Compound 2 was sub-diluted from a 10 mM stock in DMSO to 10 and 100 μM in DMSO, then diluted into Ringer solution at the concentrations referenced in Table 7 and Table 8.

[4] = PK comparison of capsule and suspension formulations; conditions: monkey, in vivo, po, 250 mg, monkeys
Method: Another study was conducted to compare the PK parameters of capsule and suspension formulations of Compound 2. All monkeys were dosed with 250 mg Compound 2. Two groups were dosed with the capsule formulation: one fasted and one allowed food ad libitum. The animals that received the suspension formulation were dosed using a nasogastric tube and were fasted. […] When the PK profile of the capsule formulation was compared in both fasted and fed monkeys, the bioavailability of Compound 2 capsules was numerically greater in fasted monkeys.

[5] = target: T2, CYP1A2 (Homo sapiens, UniProt P05177); test: CYP450 inhibition at 10 μM; format: biochemical; conditions: probe Phenacetin, 1A2, substrate Phenacetin
T2 sequence (P05177 1-516): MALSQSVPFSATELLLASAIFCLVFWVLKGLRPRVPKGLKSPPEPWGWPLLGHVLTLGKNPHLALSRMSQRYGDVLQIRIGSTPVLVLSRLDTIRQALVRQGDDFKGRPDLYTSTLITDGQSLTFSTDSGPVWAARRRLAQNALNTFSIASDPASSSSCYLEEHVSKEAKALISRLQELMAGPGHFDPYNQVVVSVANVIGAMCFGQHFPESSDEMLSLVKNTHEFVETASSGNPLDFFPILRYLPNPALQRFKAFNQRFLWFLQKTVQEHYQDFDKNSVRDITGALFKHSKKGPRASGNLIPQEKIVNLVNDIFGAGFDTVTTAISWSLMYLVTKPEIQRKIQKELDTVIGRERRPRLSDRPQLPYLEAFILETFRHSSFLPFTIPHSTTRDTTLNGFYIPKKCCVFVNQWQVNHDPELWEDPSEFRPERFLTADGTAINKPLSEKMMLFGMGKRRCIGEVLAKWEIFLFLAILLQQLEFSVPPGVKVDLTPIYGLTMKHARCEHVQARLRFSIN

[6] = system: sprague-dawley rats; test: Hepatotoxicity safety profile, serum biomarkers; format: in vivo; conditions: for ALP d28 / ALT d28 / AST d28 / GGT d28: day 28
Method: Compound 2 in the vehicle (0.5% methylcellulose [400 cps]) was administered orally by gavage once daily for a minimum of 28 consecutive days to 3 groups of sprague-dawley rats from Charles River Laboratories. Each group received one dosage level. Dosage levels were 30, 100, and 300 mg/kg/day for each group. […] The dose volume was 10 ml/kg for all groups. Hepatoxicity was measured via the serum biomarkers of alanine aminotransferease [ALT], aspartate aminotransferase [AST], alkaline phosphastase [ALP] and gamma-glutamyl transferase [GGT] which represent hepatotoxicity or bile duct injury.

T1 sequence (O75762 whole entry): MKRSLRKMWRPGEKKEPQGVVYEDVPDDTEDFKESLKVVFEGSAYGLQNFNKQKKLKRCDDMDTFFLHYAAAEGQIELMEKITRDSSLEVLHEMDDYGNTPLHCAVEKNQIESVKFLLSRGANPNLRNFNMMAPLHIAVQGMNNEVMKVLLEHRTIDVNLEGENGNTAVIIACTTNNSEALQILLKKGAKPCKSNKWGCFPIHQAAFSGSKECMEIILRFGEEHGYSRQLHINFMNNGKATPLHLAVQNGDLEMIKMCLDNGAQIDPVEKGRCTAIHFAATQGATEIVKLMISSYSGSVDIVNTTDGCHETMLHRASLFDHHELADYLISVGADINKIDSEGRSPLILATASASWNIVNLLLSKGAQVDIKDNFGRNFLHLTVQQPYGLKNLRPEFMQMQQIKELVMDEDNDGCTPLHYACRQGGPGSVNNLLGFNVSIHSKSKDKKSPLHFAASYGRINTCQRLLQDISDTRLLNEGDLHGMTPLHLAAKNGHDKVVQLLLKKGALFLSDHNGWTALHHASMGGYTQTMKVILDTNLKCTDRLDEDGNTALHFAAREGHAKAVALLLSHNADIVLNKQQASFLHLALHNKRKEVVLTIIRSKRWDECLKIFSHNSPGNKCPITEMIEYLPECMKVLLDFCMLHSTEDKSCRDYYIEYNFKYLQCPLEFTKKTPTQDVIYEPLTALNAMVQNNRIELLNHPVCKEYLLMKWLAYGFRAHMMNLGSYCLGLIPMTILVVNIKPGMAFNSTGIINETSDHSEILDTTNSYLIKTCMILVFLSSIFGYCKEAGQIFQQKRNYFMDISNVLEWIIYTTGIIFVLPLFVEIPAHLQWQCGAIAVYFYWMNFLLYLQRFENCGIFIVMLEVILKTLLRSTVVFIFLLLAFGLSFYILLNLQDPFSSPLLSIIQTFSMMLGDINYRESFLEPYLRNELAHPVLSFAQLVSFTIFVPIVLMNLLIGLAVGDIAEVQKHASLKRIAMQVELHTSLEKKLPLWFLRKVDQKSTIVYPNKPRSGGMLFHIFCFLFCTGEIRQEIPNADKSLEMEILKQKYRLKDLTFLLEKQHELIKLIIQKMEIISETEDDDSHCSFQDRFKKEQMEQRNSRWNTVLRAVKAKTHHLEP

With `C[C@@H](C(=O)Nc1ccnc(-c2cnc(N3CCC[C@H]3C(F)(F)F)nc2)n1)n1cnc2c1c(=O)n(C)c(=O)n2C` [Compound 2, (S)-2-(1,3-dimethyl-2,6-dioxo-2,3-dihydro-1H-purin-7(6H)-yl)-N-(2′-((S)-2-(trifluoromethyl)pyrrolidin-1-yl)-[2,5′-bipyrimidin]-4-yl)propanamide] the solubility at 30 h [1] was 200 to 1300 µg/mL (≈ 367 to 2390 µM), the fraction unbound at 6 h, 1 μM ([2]; beagle, dog) was 0.055 and the fraction unbound at 6 h, 1 μM ([2]; cynomolgus monkey) was 0.02. The IC50 ([3]; 1% (w/v) rat serum albumin, read-out: IC50 + RSA) was 95 ± 9 nM, the IC50 ([3]; 1% (w/v) sheep serum albumin, read-out: IC50 + SheepSA) was 70 ± 10 nM and the IC50 ([3]; 25% (v/v) dog plasma, read-out: IC50 + dog Plasma) was 221 ± 54 nM. For the same compound, the IC50 ([3]; 25% (v/v) human plasma, read-out: IC50 + hPlasma) was 95 ± 2 nM, the IC50 ([3]; 25% (v/v) rat plasma, read-out: IC50 + rPlasma) was 68 ± 8 nM and the “Fold Shift” value ([3]; IC50 + RSA) was 14X. The “Fold Shift” value ([3]; IC50 + SheepSA) was 10X, the “Fold Shift” value ([3]; IC50 + dog Plasma) was 32X and the “Fold Shift” value ([3]; IC50 + hPlasma vs IC50 in absence of serum) was 14 X. For the same compound, the “Fold Shift” value ([3]; IC50 + rPlasma) was 10X, the “binding to plasma proteins based on the shift in IC50” value ([3]; across the four species tested) was 90-97% and the “time to complete block and reversal upon washout” value ([3]; hTRPA1 currents) was 2 to 3 min. The bioavailability ([4]; Capsule (fasted)) was 13%, the bioavailability ([4]; Capsule (fed)) was 10% and the bioavailability ([4]; Suspension (fasted)) was 7.8%. The inhibition at 10 µM [5] was 9%, the “ALP d28” value ([6]; 30 mg/kg/day oral) was 168.0 U/L and the “ALT d28” value ([6]; 30 mg/kg/day oral) was 33.0 U/L. The “AST d28” value ([6]; 30 mg/kg/day oral) was 98.0 U/L, the “GGT d28” value ([6]; 30 mg/kg/day oral) was 0.0 U/L and the “ALP d28” value ([6]; 100 mg/kg/day oral) was 185.0 U/L. For the same compound, the “ALT d28” value ([6]; 100 mg/kg/day oral) was 34.0 U/L, the “AST d28” value ([6]; 100 mg/kg/day oral) was 100.0 U/L and the “GGT d28” value ([6]; 100 mg/kg/day oral) was 0.0 U/L. The “ALP d28” value ([6]; 300 mg/kg/day oral) was 163.0 U/L, the “ALT d28” value ([6]; 300 mg/kg/day oral) was 43.0 U/L and the “AST d28” value ([6]; 300 mg/kg/day oral) was 115.0 U/L. For the same compound, the “GGT d28” value ([6]; 300 mg/kg/day oral) was 0.0 U/L and the “serum biomarkers of hepatotoxicity (ALT, AST, ALP, GGT)” value ([6]; sprague-dawley rats, oral once daily for 28 days) was “did not elevate the serum biomarkers up to and including a dose of 300 mg/kg”.
